# Assay results published in PubChem BioAssay (NCI).
#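 Cultured in 96-well plates, cells were exposed to test compound for 48 hours across five concentrations. GI50: concentration for 50% inhibition of growth. TGI: concentration producing complete growth inhibition.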
# Experiments:
# Test in all cases: NCI anticancer screen, dose series, 48 h
# 786-0 renal = tested on: 786-0 renal
# A498 renal = tested on: A498 renal
# A549 NSCLC = tested on: A549 NSCLC
# ACHN renal = tested on: ACHN renal
# BT-549 breast = tested on: BT-549 breast
# CAKI-1 renal = tested on: CAKI-1 renal
# CCRF-CEM leukemia = tested on: CCRF-CEM leukemia
# COLO 205 colon = tested on: COLO 205 colon
# DU-145 prostate = tested on: DU-145 prostate
# EKVX NSCLC = tested on: EKVX NSCLC
# HCC-2998 colon = tested on: HCC-2998 colon
# HCT-116 colon = tested on: HCT-116 colon
# HCT-15 colon = tested on: HCT-15 colon
# HL-60(TB) leukemia = tested on: HL-60(TB) leukemia
# HOP-62 NSCLC = tested on: HOP-62 NSCLC
# HOP-92 NSCLC = tested on: HOP-92 NSCLC
# HS 578T breast = tested on: HS 578T breast
# HT29 colon = tested on: HT29 colon
# IGROV1 ovarian = tested on: IGROV1 ovarian
# K-562 leukemia = tested on: K-562 leukemia
# KM12 colon = tested on: KM12 colon
# LOX IMVI melanoma = tested on: LOX IMVI melanoma
# M14 melanoma = tested on: M14 melanoma
# MALME-3M melanoma = tested on: MALME-3M melanoma
# MCF7 breast = tested on: MCF7 breast
# MDA-MB-231 breast = tested on: MDA-MB-231 breast
# MDA-MB-435 = tested on: MDA-MB-435
# MDA-MB-468 breast = tested on: MDA-MB-468 breast
# MOLT-4 leukemia = tested on: MOLT-4 leukemia
# NCI-H226 lung = tested on: NCI-H226 lung
# NCI-H23 lung = tested on: NCI-H23 lung
# NCI-H460 lung = tested on: NCI-H460 lung
# NCI-H522 lung = tested on: NCI-H522 lung
# NCI/ADR-RES ovarian = tested on: NCI/ADR-RES ovarian
# OVCAR-3 ovarian = tested on: OVCAR-3 ovarian
# OVCAR-4 ovarian = tested on: OVCAR-4 ovarian
# OVCAR-5 ovarian = tested on: OVCAR-5 ovarian
# OVCAR-8 ovarian = tested on: OVCAR-8 ovarian
# PC-3 prostate = tested on: PC-3 prostate
# RPMI-8226 leukemia = tested on: RPMI-8226 leukemia
# RXF 393 renal = tested on: RXF 393 renal
# SF-268 CNS = tested on: SF-268 CNS
# SF-295 CNS = tested on: SF-295 CNS
# SF-539 CNS = tested on: SF-539 CNS
# SK-MEL-2 melanoma = tested on: SK-MEL-2 melanoma
# SK-MEL-28 melanoma = tested on: SK-MEL-28 melanoma
# SK-MEL-5 melanoma = tested on: SK-MEL-5 melanoma
# SK-OV-3 ovarian = tested on: SK-OV-3 ovarian
# SN12C renal = tested on: SN12C renal
# SNB-19 CNS = tested on: SNB-19 CNS
# SNB-75 CNS = tested on: SNB-75 CNS
# SR leukemia = tested on: SR leukemia
# SW-620 colon = tested on: SW-620 colon
# T-47D breast = tested on: T-47D breast
# TK-10 renal = tested on: TK-10 renal
# U251 CNS = tested on: U251 CNS
# UACC-257 melanoma = tested on: UACC-257 melanoma
# UACC-62 melanoma = tested on: UACC-62 melanoma
# UO-31 renal = tested on: UO-31 renal
compound,measurement,setting,value
COc1ccc(/C=C/C(=O)c2ccc(N3CCN(C)CC3)cc2)c(C(F)(F)F)c1,GI50,786-0 renal,12.5 µM
same,TGI,786-0 renal,37.7 µM
same,GI50,A498 renal,16.5 µM
same,TGI,A498 renal,30.8 µM
same,GI50,A549 NSCLC,13.2 µM
same,TGI,A549 NSCLC,30.1 µM
same,GI50,ACHN renal,15.1 µM
same,TGI,ACHN renal,28.3 µM
same,GI50,BT-549 breast,14.5 µM
same,TGI,BT-549 breast,29.1 µM
same,GI50,CAKI-1 renal,14.2 µM
same,TGI,CAKI-1 renal,27.5 µM
same,GI50,CCRF-CEM leukemia,7.61 µM
same,TGI,CCRF-CEM leukemia,53.1 µM
same,GI50,COLO 205 colon,15.6 µM
same,TGI,COLO 205 colon,35.5 µM
same,GI50,DU-145 prostate,14.9 µM
same,TGI,DU-145 prostate,31.2 µM
same,GI50,EKVX NSCLC,12.7 µM
same,TGI,EKVX NSCLC,25.4 µM
same,GI50,HCC-2998 colon,12 µM
same,TGI,HCC-2998 colon,24.3 µM
same,GI50,HCT-116 colon,5.61 µM
same,TGI,HCT-116 colon,39 µM
same,GI50,HCT-15 colon,4.61 µM
same,TGI,HCT-15 colon,16.5 µM
same,GI50,HL-60(TB) leukemia,4.87 µM
same,TGI,HL-60(TB) leukemia,24.7 µM
same,GI50,HOP-62 NSCLC,19.3 µM
same,TGI,HOP-62 NSCLC,37 µM
same,GI50,HOP-92 NSCLC,10.1 µM
same,TGI,HOP-92 NSCLC,25.8 µM
same,GI50,HS 578T breast,14.9 µM
same,TGI,HS 578T breast,46.5 µM
same,GI50,HT29 colon,4.88 µM
same,TGI,HT29 colon,22.3 µM
same,GI50,IGROV1 ovarian,15.4 µM
same,TGI,IGROV1 ovarian,29 µM
same,GI50,K-562 leukemia,2.96 µM
same,TGI,K-562 leukemia,22.1 µM
same,GI50,KM12 colon,11 µM
same,TGI,KM12 colon,24.9 µM
same,GI50,LOX IMVI melanoma,8.56 µM
same,TGI,LOX IMVI melanoma,20.9 µM
same,GI50,M14 melanoma,14.4 µM
same,TGI,M14 melanoma,34.5 µM
same,GI50,MALME-3M melanoma,12.9 µM
same,TGI,MALME-3M melanoma,25.6 µM
same,GI50,MCF7 breast,4.6 µM
same,TGI,MCF7 breast,19.5 µM
same,GI50,MDA-MB-231 breast,16.8 µM
same,TGI,MDA-MB-231 breast,30.5 µM
same,GI50,MDA-MB-435,11.3 µM
same,TGI,MDA-MB-435,24.7 µM
same,GI50,MDA-MB-468 breast,3.54 µM
same,TGI,MDA-MB-468 breast,13.9 µM
same,GI50,MOLT-4 leukemia,9.11 µM
same,TGI,MOLT-4 leukemia,32.8 µM
same,GI50,NCI-H226 lung,12.4 µM
same,TGI,NCI-H226 lung,28.3 µM
same,GI50,NCI-H23 lung,11.2 µM
same,TGI,NCI-H23 lung,23.2 µM
same,GI50,NCI-H460 lung,14 µM
same,TGI,NCI-H460 lung,27.9 µM
same,GI50,NCI-H522 lung,15.9 µM
same,TGI,NCI-H522 lung,31.9 µM
same,GI50,NCI/ADR-RES ovarian,13.2 µM
same,TGI,NCI/ADR-RES ovarian,26.4 µM
same,GI50,OVCAR-3 ovarian,14.4 µM
same,TGI,OVCAR-3 ovarian,29.3 µM
same,GI50,OVCAR-4 ovarian,15.5 µM
same,TGI,OVCAR-4 ovarian,34.4 µM
same,GI50,OVCAR-5 ovarian,16.2 µM
same,TGI,OVCAR-5 ovarian,29.7 µM
same,GI50,OVCAR-8 ovarian,20.8 µM
same,TGI,OVCAR-8 ovarian,49.3 µM
same,GI50,PC-3 prostate,13.2 µM
same,TGI,PC-3 prostate,40.4 µM
same,GI50,RPMI-8226 leukemia,3.4 µM
same,TGI,RPMI-8226 leukemia,47.7 µM
same,GI50,RXF 393 renal,4.12 µM
same,TGI,RXF 393 renal,18.9 µM
same,GI50,SF-268 CNS,18.9 µM
same,TGI,SF-268 CNS,41 µM
same,GI50,SF-295 CNS,13.9 µM
same,TGI,SF-295 CNS,27.2 µM
same,GI50,SF-539 CNS,14.2 µM
same,TGI,SF-539 CNS,27.2 µM
same,GI50,SK-MEL-2 melanoma,17.5 µM
same,TGI,SK-MEL-2 melanoma,32.7 µM
same,GI50,SK-MEL-28 melanoma,14.7 µM
same,TGI,SK-MEL-28 melanoma,27.9 µM
same,GI50,SK-MEL-5 melanoma,7.97 µM
same,TGI,SK-MEL-5 melanoma,20.6 µM
same,GI50,SK-OV-3 ovarian,16.7 µM
same,TGI,SK-OV-3 ovarian,33.5 µM
same,GI50,SN12C renal,13.3 µM
same,TGI,SN12C renal,26.4 µM
same,GI50,SNB-19 CNS,14.8 µM
same,TGI,SNB-19 CNS,27.9 µM
same,GI50,SNB-75 CNS,11.7 µM
same,TGI,SNB-75 CNS,24.5 µM
same,GI50,SR leukemia,6.74 µM
same,TGI,SR leukemia,> 100 µM
same,GI50,SW-620 colon,11.2 µM
same,TGI,SW-620 colon,23.9 µM
same,GI50,T-47D breast,13.7 µM
same,TGI,T-47D breast,34.6 µM
same,GI50,TK-10 renal,17.7 µM
same,TGI,TK-10 renal,32.8 µM
same,GI50,U251 CNS,11.7 µM
same,TGI,U251 CNS,34.4 µM
same,GI50,UACC-257 melanoma,15.3 µM
same,TGI,UACC-257 melanoma,30.8 µM
same,GI50,UACC-62 melanoma,14.1 µM
same,TGI,UACC-62 melanoma,27 µM
same,GI50,UO-31 renal,12.3 µM
same,TGI,UO-31 renal,24.7 µM
